In US20040167097A1, “EPO D + 5-FU/gemcitabine” (priority 2002, published 2004):
Where two headings read alike, the source gives them in different places.

What was measured:
[1] = test system: thymidine phosphorylase; assay: Production of thymidine phosphorylase in tumor cells; assay type: cell-based; conditions: some tumor cells; preliminary experiments
Method: The data from each of the combination analyses was analyzed using [sequence] software (Biosoft, Cambridge, UK), which determined a combination index (“CI”) value for each combination in each of the three cell lines examined.

[2] = Pharmacokinetics after infusion; assay type: in vivo
From the text: In general, the pharmacokinetics are favorable. […] This is somewhat higher on average than the values for paclitaxel which are 140±70 l.

[3] = test system: tumor; conditions: mice; Chou, et al. 2001; cited from earlier work
[4] = test system: paclitaxel-sensitive and paclitaxel-resistant cell lines and xenographs; conditions: cited from earlier work
[5] = comparison value for paclitaxel; cited from earlier work

| Compound | production of thymidine phosphorylase [1] | dependence of AUC on dosage ([2]; from 9 to 150 mg/m^2) | dose dependence of pharmacokinetics ([2]; in vivo) | pharmacokinetic parameters, second infusion as compared to first infusion ([2]; in vivo) | half-life, mean value ([2]; infusion) | volume of distribution (Vz) ([2]; infusion) | antitumor effects [3] | antitumor efficacy [4] | volume of distribution (Vz) [5] |
| --- | --- | --- | --- | --- | --- | --- | --- | --- | --- |
| C/C1=C/C[C@@H](/C(C)=C/c2csc(C)n2)OC(=O)C[C@H](O)C(C)(C)C(=O)[C@H](C)[C@@H](O)[C@@H](C)CCC1 [epothilone D, 12,13-deoxyepothilone B] | upregulate | linear | not dose-dependent | do not change | 9.6 ± 2.2 h | 172 ± 74 L | dramatic antitumor effects | has antitumor efficacy | – |
| CC(=O)O[C@H]1C(=O)[C@@]2(C)[C@H]([C@H](OC(=O)c3ccccc3)[C@]3(O)C[C@H](OC(=O)[C@H](O)[C@@H](NC(=O)c4ccccc4)c4ccccc4)C(C)=C1C3(C)C)[C@]1(OC(C)=O)CO[C@@H]1C[C@@H]2O [paclitaxel] | – | – | – | – | – | – | – | – | 140 ± 70 L |
